Consider three molecules from publication PMC10384862, “[^212Pb]Pb-eSOMA-01: A Promising Radioligand for Targeted Alpha Therapy of Neuroendocrine Tumors” (Pharmaceuticals, 2023).

Like-named read-outs stand apart in the source and are kept apart here.

Data set [1] can be described thus: Ex vivo biodistribution with lead-203. The format is in vivo, mouse. The following applies: mouse, 24 h post-injection. The protocol:
(§1) Six-week-old male Balb/c nu/nu-specific and opportunistic pathogen-tree (SOPF) mice (Janvier Labs, Le Genest-Saint-Isle, France) were housed in individually ventilated cages, with four mice per cage. Upon arrival, the mice were acclimated for 1 week with access to food and water ad libitum. Mice were subcutaneously inoculated on the right shoulder with NCI-H69 cells (5 × 10^6 cells suspended in 100 μL of 1/3 Matrigel (Corning Inc.; Corning, NY, USA) and 2/3 Hank’s balanced salt solution (Gibco; Paisley, UK). NCI-H69 xenografts were allowed to grow for 3 weeks. Tumor sizes were 391 ± 173 mm^3 at the start of the studies.
(§2) To determine the biodistribution of the compounds after imaging (1, 4, and 24 h p.i.), blood was collected via retro-orbital puncture under isoflurane/O2 anesthesia, after which the mice were sacrificed via cervical dislocation. The tumor and organs of interest (heart, lungs, liver, spleen, stomach, large intestine, small intestine, pancreas, kidneys, muscle, skin, and bone) were excised, washed in PBS, blotted dry, and collected into tubes. The blood, tumor, and relevant organs were weighed and measured with a gamma counter. The percentage of injected dose per gram (% ID/g) was determined for each tissue sample and corrected for both the injected volume and the % ID present at the injection site (the tail).

Data set [2] has as its system H69 tumor bearing mice. Briefly: Ex vivo biodistribution with lead-203. The format is in vivo, mouse. Particulars: after 4 h (so in the source); p < 0.05. Here is the method:
as §1, §2

Data set [3] is described as follows: LogD7.4 by shake-flask method (n-octanol/PBS). The format is physicochemical. The following applies: ^203Pb-labeled compound; n-octanol/PBS pH 7.4; n = 3. The protocol: Distribution coefficients (LogD7.4) were determined by the shake-flask method. A sample containing the ^203Pb-labeled compound (~1 MBq) was added to a vial containing PBS (600 µL, pH 7.4) and n-octanol (600 µL). The vial was vortexed vigorously and then centrifuged at 10,000 rpm for 10 min for phase separation. Samples (100 µL) of the n-octanol and aqueous phases were taken and measured by a gamma counter. The LogD7.4 value was calculated by using the equation: LogD7.4 = log [(counts in the n-octanol phase)/(counts in the aqueous phase)]. Measurements were performed in triplicate.

Data set [4] can be described thus: In vitro stability in PBS. Particulars: phosphate buffered saline, pH 7.4; ^203Pb-labeled; 24 h; 37 °C; n = 1; read-out: Stability in PBS, intact labeled ligand. The class given is physicochemical. Here is the method: The ^203Pb-labeled compounds (~ 2 MBq) or the ^212Pb-labeled compounds (~ 70 kBq) were incubated in 300 µL of phosphate buffered saline (PBS; 0.1 M, pH 7.4) or mouse serum at 37 °C. The stability of the radiolabeled peptides was monitored at 1, 4, and 24 h post-incubation. The samples in PBS were directly analyzed by radio-HPLC without any pretreatment. However, samples of mouse serum were mixed with an equal volume of acetonitrile to precipitate the proteins. The solution was centrifuged twice for 5 min at 13,000 rpm, and the supernatant was analyzed by radio-HPLC using Method 1 for lead-203 and Method 2 for lead-212.

A short description of data set [5]: SPECT/CT imaging with 203Pb-labeled ligands. The format is in vivo. The following applies: mouse; for tissue uptake per volume / tissue uptake per volume at 1 h / tissue uptake per volume at 24 h: male, Balb/c nu/nu, tumor, iv, 0.5 nmol, total radioactivity, read-out: Tumor uptake from SPECT images; for tissue uptake per volume: 1, 4 and 24 h after administration, n = 4; for tissue uptake per volume at 1 h: 1 h post-injection; for tissue uptake per volume at 24 h: 24 h post-injection; for half-life: kidneys, intravenous, ^203Pb-labeled, H69 tumor-bearing mice, read-out: Renal clearance half-life (converted). The protocol: SPECT/CT imaging was performed in H69-xenografted Balb/c nu/nu mice at 1, 4, and 24 h after the administration of [^203Pb]Pb-eSOMA-01 or [^203Pb]Pb-eSOMA-02. Tumors were visible by SPECT/CT for both radioligands (Figure 3A,B). […] They increased over time for [^203Pb]Pb-eSOMA-01 (0.5 ± 0.03 at 4 h to 0.70 ± 0.11 at 24 h), while they remained nearly constant for [^203Pb]Pb-eSOMA-02 (0.30 ± 0.09 at 4 h and 0.4 ± 0.03 at 24 h).
as §1
Mice (n = 4 per compound) were intravenously injected in the tail vein with 100 μL of [^203Pb]Pb-eSOMA-01 (12.31 ± 1.44 MBq, 0.5 nmol) or [^203Pb]Pb-eSOMA-02 (13.06 ± 1.44 MBq, 0.5 nmol) containing Kolliphor HS 15 (Merck; Haarlerbergweg, The Netherlands) in PBS (0.06 mg/mL). At 1, 4, and 24 h post-injection (p.i.), mice were imaged in a prone position on a heated bed under 2% isoflurane/O2 anesthesia in a dedicated small-animal PET/SPECT/CT VECTOR5 scanner (MILabs B.V.; Utrecht, The Netherlands) with a high-sensitivity pinhole collimator (HE-GP-M, 1.6 mm pinholes). Whole-body SPECT images were acquired over one frame of 20 min (for 1 and 4 h time points) and two frames of 20 min (for 24 h time points) using a spiral scan in normal scan mode, in list-mode acquisition. This was followed by a whole-body normal CT scan (angle step 0.75 degrees, 50 kV tube voltage, 0.21 mA tube current). Reconstruction of the SPECT images was performed using the similarity-regulated SROSEM method (MILabs Rec 11.00 software), performing five iterations with a voxel size of 0.4 mm, using 72 keV ± 30% and 280 keV ± 8% energy windows for lead-203. Reconstructed volumes of SPECT scans were post-filtered with an isotropic three-dimensional Gaussian filter of 1 mm full width at half-maximum. Image processing and analyses of the reconstructed data were performed using the PMOD image analysis software version 3.9 (PMOD Technologies; Zurich, Switzerland) to calculate the percentage of injected dose per mL (% ID/mL). An Eppendorf tube filled with a solution of lead-203 of known activity was measured to determine the calibration factor.

For data set [6], the system named is AR42J tumors. The following applies: in vivo, cited from earlier work.
[7] abbreviates: blood, n = 4, read-out: Blood uptake.
Setting [8] is: bone, n = 4, read-out: Bones uptake.
Where [9] appears, read: heart, n = 4, read-out: Heart uptake.
[10] abbreviates: kidneys, n = 4, read-out: Kidneys uptake.
The mark [11] stands for this setting: large intestine, n = 4, read-out: Large Intestine uptake.
The mark [12] stands for this setting: liver, n = 4, read-out: Liver uptake.
Setting [13] is: lungs, n = 4, read-out: Lungs uptake.
Where [14] appears, read: muscle, n = 4, read-out: Muscle uptake.
Where [15] appears, read: non-target organs other than kidneys, intravenous, organs other than kidneys, read-out: Uptakes in all the other non-target organs.
Where [16] appears, read: pancreas, n = 4, read-out: Pancreas uptake.
Where [17] appears, read: skin, n = 4, read-out: Skin uptake.
[18] abbreviates: small intestine, n = 4, read-out: Small Intestine uptake.
Where [19] appears, read: spleen, n = 4, read-out: Spleen uptake.
[20] abbreviates: stomach, n = 4, read-out: Stomach uptake.
The mark [21] stands for this setting: tumor, n = 4, read-out: Tumor uptake.

Turning to `C[C@@H](O)[C@H](NC(=O)[C@@H]1CSSC[C@H](NC(=O)[C@@H](Cc2ccccc2)NC(=O)CN2CCC(NC(=O)CN3CCN(CC(N)=O)CCN(CC(N)=O)CCN(CC(N)=O)CC3)CC2)C(=O)N[C@@H](Cc2ccc(O)cc2)C(=O)N[C@H](Cc2c[nH]c3ccccc23)C(=O)N[C@@H](CCCCN)C(=O)N[C@@H]([C@@H](C)O)C(=O)N1)C(=O)O` [[^203Pb]Pb-eSOMA-02, metal not drawn], the tissue uptake at 24 h came to 0.17 ± 0.11 %ID/g in data set [1] (setting [7]); 0.67 ± 0.04 %ID/g in data set [1] (setting [8]); 0.09 ± 0.02 %ID/g in data set [1] (setting [9]); 12.6 ± 0.02 %ID/g in data set [1] (setting [10]); 0.41 ± 0.06 %ID/g in data set [1] (setting [11]); 1.11 ± 0.05 %ID/g in data set [1] (setting [12]). The tissue uptake at 24 h is 0.53 ± 0.04 %ID/g in data set [1] (setting [13]); 0.04 ± 0.07 %ID/g in data set [1] (setting [14]); under 1 %ID/g in data set [1] (setting [15]); 0.83 ± 0.96 %ID/g in data set [1] (setting [16]); 0.43 ± 0.09 %ID/g in data set [1] (setting [17]); 0.24 ± 0.03 %ID/g in data set [1] (setting [18]). Moreover, the tissue uptake at 24 h was found to be 0.61 ± 0.15 %ID/g in data set [1] (setting [19]), 0.67 ± 0.19 %ID/g in data set [1] (setting [20]) and 2.54 ± 0.36 %ID/g in data set [1] (setting [21]). Also, the “More uptake in the kidneys compared to [203Pb]Pb-eSOMA-01” value in data set [2] is given as “around 41%”. Further, the logD (in general, the decadic logarithm of the distribution of all forms, ionised or not, between an organic phase and buffer at a given pH) in data set [3] is -1.88 ± 0.03. Further, in data set [4], the remaining at 24 h is over 97%. The tissue uptake per volume in data set [5] fell in the range of 3 to 4 %ID/mL. For the same molecule, the tissue uptake per volume at 1 h in data set [5] is about 4 %ID/mL. Further, in data set [5], the tissue uptake per volume at 24 h fell in the range of 2 to 3 %ID/mL. In addition, the half-life (in general, the time in which the quantity being followed falls by half) in data set [5] was 24.2 ± 4.5 h.
Consider `C[C@@H](O)[C@H](NC(=O)[C@@H]1CSSC[C@H](NC(=O)[C@@H](Cc2ccccc2)NC(=O)CN2CCN(CC(N)=O)CCN(CC(N)=O)CCN(CC(N)=O)CC2)C(=O)N[C@@H](Cc2ccc(O)cc2)C(=O)N[C@H](Cc2c[nH]c3ccccc23)C(=O)N[C@@H](CCCCN)C(=O)N[C@@H]([C@@H](C)O)C(=O)N1)C(=O)O` [[^203Pb]Pb-DOTAM-TATE, metal not drawn, reference compound], for which the Tumor uptake in data set [6] (1 h) is recorded as 13 % ID/g. Further, the Uptake in kidneys in data set [6] (24 h) is listed as ~ 13 % ID/g. In data set [3], this molecule yielded a logD of -1.41 ± 0.01. In data set [4], the remaining at 24 h was over 97%.
Turning to `C[C@@H](O)[C@H](NC(=O)[C@@H]1CSSC[C@H](NC(=O)[C@@H](Cc2ccccc2)NC(=O)[C@H]2CC[C@H](CNC(=O)CN3CCN(CC(N)=O)CCN(CC(N)=O)CCN(CC(N)=O)CC3)CC2)C(=O)N[C@@H](Cc2ccc(O)cc2)C(=O)N[C@H](Cc2c[nH]c3ccccc23)C(=O)N[C@@H](CCCCN)C(=O)N[C@@H]([C@@H](C)O)C(=O)N1)C(=O)O` [[^203Pb]Pb-eSOMA-01, metal not drawn], the tissue uptake at 24 h in data set [1] (setting [7]) was 0.05 ± 0.02 %ID/g; in data set [1] (setting [8]), 0.27 ± 0.02 %ID/g; in data set [1] (setting [9]), 0.05 ± 0.01 %ID/g; in data set [1] (setting [10]), 7.44 ± 1.17 %ID/g; in data set [1] (setting [11]), 0.34 ± 0.08 %ID/g; in data set [1] (setting [12]), 0.86 ± 0.1 %ID/g. For the same molecule, the tissue uptake at 24 h in data set [1] (setting [13]) was 0.36 ± 0.05 %ID/g; in data set [1] (setting [14]), 0.18 ± 0.03 %ID/g; in data set [1] (setting [15]) it was under 1 %ID/g; in data set [1] (setting [16]), 0.12 ± 0.02 %ID/g; in data set [1] (setting [17]), 0.03 ± 0.02 %ID/g; in data set [1] (setting [18]) it was 0.12 ± 0.02 %ID/g. For the same molecule, the tissue uptake at 24 h was determined as 0.22 ± 0.03 %ID/g in data set [1] (setting [19]), 0.75 ± 0.34 %ID/g in data set [1] (setting [20]) and 2.89 ± 0.84 %ID/g in data set [1] (setting [21]). Besides, in data set [3], the logD was -1.99 ± 0.03. In data set [4], the remaining at 24 h was over 97%. Besides, in data set [5], the tissue uptake per volume is 3 to 4 %ID/mL. Also, in data set [5], the tissue uptake per volume at 1 h is about 4 %ID/mL. Moreover, in data set [5], the tissue uptake per volume at 24 h fell in the range of 2 to 3 %ID/mL. Moreover, the half-life in data set [5] was 14.7 ± 2.4 h.
